In US20060167083A1, “Therapeutic methods and compositions involving isoflav-3-ene and isoflavan structures” (priority 2002, published 2006):
In brackets after ≈: the same amount, converted by molar mass. Entries after “also recorded” stand apart in the source; their conditions may differ.

What was measured:
[1] = biological target: T1, human topo II (Homo sapiens, UniProt P11388); experiment: Topo II-mediated P4 unknotting assay; type: biochemical
T1 construct: purchased Topogen (Columbus, Ohio)
T1 sequence (P11388 whole entry): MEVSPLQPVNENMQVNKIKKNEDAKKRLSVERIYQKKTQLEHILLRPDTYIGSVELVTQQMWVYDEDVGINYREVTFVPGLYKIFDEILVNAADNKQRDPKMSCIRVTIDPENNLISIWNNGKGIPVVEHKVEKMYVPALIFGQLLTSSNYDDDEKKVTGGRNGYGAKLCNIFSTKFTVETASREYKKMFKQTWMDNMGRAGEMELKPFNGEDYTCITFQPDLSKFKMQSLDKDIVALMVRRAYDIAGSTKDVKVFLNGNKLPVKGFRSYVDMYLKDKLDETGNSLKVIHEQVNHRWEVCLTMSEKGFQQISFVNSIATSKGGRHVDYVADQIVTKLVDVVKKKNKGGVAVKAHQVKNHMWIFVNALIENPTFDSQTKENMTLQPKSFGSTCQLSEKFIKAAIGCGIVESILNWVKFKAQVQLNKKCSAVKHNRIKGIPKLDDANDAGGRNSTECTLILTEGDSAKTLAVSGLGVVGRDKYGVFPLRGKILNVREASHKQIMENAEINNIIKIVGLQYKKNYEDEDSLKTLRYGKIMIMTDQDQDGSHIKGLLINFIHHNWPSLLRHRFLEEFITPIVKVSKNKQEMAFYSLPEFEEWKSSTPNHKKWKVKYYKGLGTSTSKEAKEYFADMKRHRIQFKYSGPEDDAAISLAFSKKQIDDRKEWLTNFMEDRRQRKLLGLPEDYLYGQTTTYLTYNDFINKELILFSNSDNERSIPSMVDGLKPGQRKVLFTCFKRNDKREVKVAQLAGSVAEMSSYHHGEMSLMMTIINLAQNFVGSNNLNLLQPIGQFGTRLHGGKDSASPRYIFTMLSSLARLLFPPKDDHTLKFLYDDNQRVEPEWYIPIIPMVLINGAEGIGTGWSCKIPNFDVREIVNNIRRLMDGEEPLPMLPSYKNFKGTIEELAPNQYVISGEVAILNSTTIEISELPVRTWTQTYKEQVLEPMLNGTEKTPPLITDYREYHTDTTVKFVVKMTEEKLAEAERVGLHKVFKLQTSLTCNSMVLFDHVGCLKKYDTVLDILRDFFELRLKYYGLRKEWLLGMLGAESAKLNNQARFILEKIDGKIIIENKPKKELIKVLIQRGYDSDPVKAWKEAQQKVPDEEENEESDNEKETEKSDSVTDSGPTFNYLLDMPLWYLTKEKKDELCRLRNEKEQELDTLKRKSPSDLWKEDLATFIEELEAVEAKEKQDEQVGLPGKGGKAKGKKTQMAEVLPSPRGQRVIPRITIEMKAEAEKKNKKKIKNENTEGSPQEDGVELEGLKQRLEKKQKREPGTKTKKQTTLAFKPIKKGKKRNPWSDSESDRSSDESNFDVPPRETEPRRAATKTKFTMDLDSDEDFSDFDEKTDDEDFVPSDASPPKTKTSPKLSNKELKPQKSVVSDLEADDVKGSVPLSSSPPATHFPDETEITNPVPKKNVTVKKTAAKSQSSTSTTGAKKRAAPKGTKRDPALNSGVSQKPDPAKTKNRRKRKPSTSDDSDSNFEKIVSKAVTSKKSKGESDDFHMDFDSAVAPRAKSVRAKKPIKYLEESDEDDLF
Procedure: FIG. 1 represents an unknotting assay for determining the effect of dehydroequol on topo II catalytic activity. Substrate P4 DNA was incubated with two units of purified topo II in the absence (lane 1) or presence of 100, 80, 60, 40, 20, and 10 μg/ml dehydroequol (lanes 3-8). Lane 2, 10 μg/ml VP-16 (positive control). Topo II activity was determined by converting knotted P4 DNA (K) to the unknotted (U) form.
The stepwise removal of DNA knots (unknotting) requires transient double-strand breakage followed by strand passage and relegation. Type II topoisomerases uniquely catalyse this reaction. […] DNA from a mutant bacteriophage (P4 Virl del1O) is used as a reaction substrate that migrates as a smear (due to the variable number of knots). In the presence of topo II, topological DNA knots are removed, and the reaction product (unknotted DNA) migrates as a single band. Complete inhibition was evident at 100 μg/ml dehydroequol. It was determined from densitometric measurements of the unknotted band that 50% inhibition (IC50) was at about 20 μg/ml dehydroequol.
To determine topoisomerase (topo) II catalytic activity, knotted DNA that had been isolated from the tailless capsids of the bacteriophage P4 Virl del1O was used as the substrate. Reaction mixtures contained 50 mM Tris-HCl, pH 8.0, 120 mM KCl, 10 mM MgCl2, 0.5 mM ATP, and 0.5 mM dithiothreitol. The topo II inhibitor was added prior to the addition of 2 units of human topo II. Reactions (20 μl final volume) were initiated by adding 0.6 μg of knotted DNA and carried out at 37° C. for 30 min. […] For the quantitative determination of topo II activity, photographic negatives were densitometrically scanned. Unknotted DNA, migrating as a single band at the top of the gel, was measured in this manner. The concentration of the inhibitor preventing 50% of the substrate (knotted DNA) from being converted into the reaction product (unknotted DNA) was determined from a standard curve. By averaging three to four such experiments, the IC50 values were determined.

[2] = biological target: T1, human topo II; experiment: Topo II-mediated plasmid linearisation assay; type: biochemical
Procedure: FIG. 3 represents an assay for determining the effect of dehydroequol on double-stranded DNA cleavage. pRYG DNA was incubated with ten units of human topo II (lanes 2-6) in the absence (lane 1) or presence of 10, 30, or 100 μg/ml dehydroequol (lanes 2-4), or 30 μg/ml genistein (lane 5), or 10 μg/ml VP-16 (lane 6). Lane 7, linear pUC8 DNA marker. Double-strand DNA breakage was determined by converting relaxed (REL) or supercoiled (SC) pRYG DNA to the linear (LIN) form.
A linearisation assay was employed to determine if dehydroequol is a topo II poison. Double-strand breakage results in the appearance of linear DNA. […] This effect, which was evident at 10 μg/ml, peaked at 30 μg/ml.
Topo II poisons enhance topo II-mediated DNA cleavage and can be identified with the linearisation assay under the reaction conditions provided by the supplier of the enzyme (Topogen, Inc.). Briefly, 20-μl reaction mixtures contained 30 mM Tris-HCl, pH 7.6, 3 mM ATP, 15 mM β-mercaptoethanol, 8 mM MgCl2, 60 mM NaCl, 1 μl of the test agent (or solvent), 0.3 μg of pRYG, and 10 units of human topo II (added last). After a 15-min incubation at 37° C., SDS-proteinase K was added, and following a 15 min incubation at 37° C., samples were extracted with CHCl3-isopropanol and electrophoresis was performed on a 1% agarose gel containing ethidium bromide. Gels were photographed, and photographic negatives were scanned.

[3] = system: human cervical carcinoma (HeLa); experiment: HeLa cell apoptosis; type: cell-based; conditions: 10 μm
[4] = system: colon cancer line CaCo-2; experiment: Anti-proliferative effect on CaCo-2; type: cell-based; conditions: Homo sapiens
[5] = system: prostate cancer line DU145; experiment: Anti-proliferative effect on DU145; type: cell-based; conditions: Homo sapiens, DU-145
[6] = system: LNCaP human prostate cells; experiment: Athymic mice xenograft assay; type: in vivo, athymic Balb/c mice; conditions: 2 mg uid orally, 5 days per week, 58 days; treated versus control group, p<0.0003
Procedure: Athymic mice xenograft assay: LNCaP human prostate cells were implanted subcutaneously into athymic Balb/c mice and De (2 mg uid) administered orally from the time of cell inoculation for 5 days per week. Animals were killed 58 days post-implantation and tumour mass (mg) calculated from the formula (width^2×length)/2 as used in NCI.

[7] = system: VCAM-1; experiment: VCAM-1 expression assay on endothelial cells (FACS); type: cell-based, human; conditions: 10 μg/ml 18 hours prior to stimulation; TNF and IL-1
Procedure: E selectin and VCAM-1 assays: HUVEC were plated at 5×10^5 cells per 6 well dish. Cells were treated with DMSO vehicle or De (10 μg/ml final) for 18 hours prior to TNFα (1 ng/ml) addition. After 4 or 18 hours, cells were washed with PBS and incubated with antibodies against E selectin (Mab49-1B11) or VCAM-1 (Nab51-10C9) for 30 min. Goat F(ab′)2 fragment mouse-IgG(H+L)-FITC antibody (Immunotech, Marseille, France) was then added for 30 min. The cells were then trypsinised and FACS analysed on a Coulter Epics® XL-MCL (Beckman Coulter). Results are expressed as arbitrary units relating to the mean intensity of FITC fluorescence.

[8] = system: IL-8; experiment: IL-8 secretion from endothelial cells (immunoassay); type: cell-based, human; conditions: TNF stimulated endothelial cells
Procedure: IL8 assay: IL-8 assays were performed using a “Quantikine Human IL-8 Immunoassay” (R & D Systems, Minneapolis Minn. USA).

[9] = system: PECAM-1; experiment: PECAM-1 expression on EC, flow cytometric analysis; type: cell-based; conditions: after De treatment, data not shown
[10] = system: VEGF receptor 2; experiment: VEGF receptor 2 expression on EC, flow cytometric analysis; type: cell-based; conditions: after De treatment, data not shown

Structure (SMILES): Oc1ccc(C2=Cc3ccc(O)cc3OC2)cc1 [Dehydroequol, 4′,7-dihydroxyisoflav-3-ene]
- concentration at which complete inhibition of topo II unknotting was evident [1]: 100 µg/mL
- effect on topo II catalytic activity compared with positive control ([1]; VP-16 10 μg/ml as positive control): comparable to that of VP-16
- IC50 ([1]; densitometric measurements of the unknotted band, read-out: 50% inhibition (IC50) of topo II unknotting (converted)): ~83.2 µM
- concentration producing detectable (comparable) topo II-mediated linear plasmid DNA [2]: 20 µg/mL
- effect on topo II-mediated DNA strand breakage compared with positive controls ([2]; genistein 30 μg/ml, VP-16 10 μg/ml): much greater than genistein; also recorded: comparable to VP-16
- concentration at which production of linear plasmid DNA peaked ([2]; pRYG DNA, proteinase K/SDS): 30 µg/mL
- concentration at which production of linear plasmid DNA was evident ([2]; pRYG DNA, proteinase K/SDS): 10 µg/mL
- apoptosis of HeLa cells [3]: leading to HeLa cell apoptosis
- IC50 [4]: 1 µg/mL (≈ 4.16 µM)
- IC50 [5]: 3 µg/mL (≈ 12.5 µM)
- tumour growth inhibition [6]: 49%
- induction of VCAM-1 on the endothelium [7]: inhibits the induction
- secretion of EL-8 [8]: inhibits the secretion
- level of expression of PECAM-1 [9]: no changes
- level of expression of VEGF receptor 2 [10]: no changes
